Results on eight compounds are retold here after ChEMBL document CHEMBL5356994, “Synthesis, biological and molecular modelling for 1,3,4-thiadiazole sulfonyl thioureas: bacterial and fungal activity” (RSC Med Chem, 2023).

≈ marks a conversion by molar mass, not a printed value.

One test concerns Phytophthora infestans. Kind of test: Antifungal activity against Phytophthora infestans assessed as inhibition of fungal growth incubated for 5 days by poison plate technique. The format is functional, organism-based. The conditions noted are these: 120 h.
The next test addresses Carbonic anhydrase 2 (Homo sapiens, UniProt P00918). Kind of test: Inhibition of human carbonic anhydrase II esterase activity using p-nitrophenol acetate as substrate and measured for 3 mins by UV/visible spectrophotometric analysis.
A further test relates to Escherichia coli. Briefly: Antibacterial activity against Escherichia coli assessed as inhibition of bacterial growth incubated for 16 to 18 hrs by serial dilution method. The format is functional. The conditions noted are these: time 16-18 hrs.
For another test, the system named is Staphylococcus aureus. Kind of test: Antibacterial activity against Staphylococcus aureus assessed as inhibition of bacterial growth incubated for 16 to 18 hrs by serial dilution method. The format is functional. The conditions noted are these: time 16-18 hrs.
Test [1] concerns Candida albicans. Briefly: Antifungal activity against Candida albicans assessed as inhibition of fungal growth incubated for 16 to 18 hrs by serial dilution method. The format is functional. The following applies: time 16-18 hrs.
The subject of test [2] is Aspergillus flavus. Briefly: Antifungal activity against Aspergillus flavus assessed as inhibition of fungal growth incubated for 16 to 18 hrs by serial dilution method. The format is functional. The conditions noted are these: time 16-18 hrs.
The subject of test [3] is Candida albicans. Briefly: Antifungal activity against Candida albicans assessed as inhibition of fungal growth incubated for 20 hrs by macro-broth dilution method. The format is functional. On the technique in general: In broth dilution the organism is exposed to a series of concentrations in liquid medium.
Test [4] has as its system Candida albicans. Kind of test: Antifungal activity against Candida albicans assessed as inhibition of fungal growth incubated for 72 hrs by agar dilution method. The format is functional. For orientation: In agar dilution, organisms are placed on agar that contains the substance at set levels.
The next test has as its system Saccharomyces cerevisiae. Briefly: Antifungal activity against Saccharomyces cerevisiae assessed as inhibition of fungal growth incubated for 72 hrs by agar dilution method. The format is functional.
A further test concerns Aspergillus niger. Briefly: Antifungal activity against Aspergillus niger assessed as inhibition of fungal growth incubated for 72 hrs by agar dilution method. The format is functional.
A further test has as its system Fusarium oxysporum. Kind of test: Antifungal activity against Fusarium oxysporum assessed as inhibition of fungal growth incubated for 72 hrs by agar dilution method. The format is functional.
Test [5] has as its system Aspergillus flavus. Briefly: Antifungal activity against Aspergillus flavus assessed as inhibition of fungal growth incubated for 72 hrs by agar dilution method. The format is functional.

With `COc1ccc(/C(=C/C(=O)N2CCOCC2)c2ccc(Cl)cc2)cc1OC`, the EC50 in the test with Phytophthora infestans amounted to 5.53 µg/mL (≈ 14.3 µM).
For the compound `O=S(=O)(NC(=S)Nc1ccccc1)c1ccc(Cl)cc1`, the concentration for half-maximal inhibition (IC50) at Carbonic anhydrase 2 was 384 µM.
Consider `S=C(/N=C/c1cc2cc(Cl)ccc2nc1Cl)Nc1nnc(-c2ccc(Cl)cc2)s1`, for which the MIC with Escherichia coli, in the test with Staphylococcus aureus, in the test with Candida albicans [1] and with Aspergillus flavus [2] was 3.12 µg/mL (≈ 6.52 µM) throughout.
Consider `CC(=O)OC[C@H]1O[C@@H](Sc2nnc(NC(=O)c3ccc(F)cc3)s2)[C@@H](OC(C)=O)[C@H](OC(C)=O)[C@@H]1OC(C)=O`, for which the EC50 in the test with Phytophthora infestans was 3.43 µg/mL (≈ 5.86 µM).
For the compound `C=CCNc1nnc(-c2ccccc2OCc2ccc(Cl)cc2)s1`, the MIC in the test on Candida albicans [3] came to 0.08 µg/mL (≈ 0.224 µM).
For `O=S(=O)(NC(=S)Nc1ccccc1)c1ccccc1`, on Carbonic anhydrase 2, the IC50 came to 422 µM.
With `OC(Cn1cncn1)(Cn1cncn1)c1ccc(F)cc1F` [FLUCONAZOLE], the MIC came to 6.25 µg/mL (≈ 20.4 µM) in the test on Escherichia coli; 0.78 µg/mL (≈ 2.55 µM) in the test with Candida albicans [4]; 0.78 µg/mL (≈ 2.55 µM) with Saccharomyces cerevisiae; 6.25 µg/mL (≈ 20.4 µM) in the test with Staphylococcus aureus; 6.25 µg/mL (≈ 20.4 µM) in the test with Candida albicans [1]; 0.05 µg/mL (≈ 0.163 µM) in the test on Candida albicans [3]. In addition, the MIC was 1.56 µg/mL (≈ 5.09 µM) in the test with Aspergillus niger, 0.78 µg/mL (≈ 2.55 µM) in the test with Fusarium oxysporum, 6.25 µg/mL (≈ 20.4 µM) with Aspergillus flavus [2] and 0.78 µg/mL (≈ 2.55 µM) in the test on Aspergillus flavus [5].
As to `NC(=O)N/N=C/c1ccc([N+](=O)[O-])o1` [NITROFURAZONE], the MIC in the test on Escherichia coli, with Staphylococcus aureus, in the test with Candida albicans [1] and with Aspergillus flavus [2] was 6.25 µg/mL (≈ 31.5 µM) throughout.

What is called EC50 is the concentration that produces a half-maximal response. A word on the IC50: it is the point on the concentration scale where inhibition reaches its midpoint. Low values mean greater potency, high ones weaker potency. By MIC is commonly meant the least concentration at which growth counts as inhibited.
